Results on 8 molecules are retold here after PMC6579712 (Xenobiotica; the fate of foreign compounds in biological …, 2018).

“Also recorded” adds a separate entry of the source. Read-outs that look alike come from different tables or passages of the source.

The subject of series [1] is RT-SHIV. Put plainly: 90% inhibitory quotient. Also noted: IQ90 in NHP brain tissue, one individual animal: unit not given beside the values. The settings on record: for IQ90 in NHP brain tissue, one individual animal: the single animal above 1.
For series [2] the following is noted: no reference given; cited from earlier work.
The test system of series [3] is RT-SHIV. Description: IC90 against the RT-SHIV strain of virus. The series is classed as cell-based.
For series [4] the following is noted: in vivo; cited from earlier work.
A short description of series [5]: in vitro. The settings on record: rhesus macaque, frontal cortex brain tissue homogenate. The series is classed as in vitro ADME, rhesus macaques.
Series [6] in a line: ARV concentrations in brain tissue, CSF and plasma by LC-MS/MS, NHPs.
The nature of series [7]: ARV concentrations in brain tissue and plasma by LC-MS/MS, BLT mice. The settings on record: BLT vs hu-HSC-RAG.
The conditions of series [8]: cited from earlier work.
For series [9] the following is noted: in vivo; cited from earlier work. This is another data set of the same source.
For series [10] the following is noted: in vivo.
The nature of series [11]: ARV concentrations in brain tissue and plasma by LC-MS/MS, hu-HSC-RAG mice. The settings on record: p=0.29.
Series [12] concerns HIV. The conditions noted are these: target value used for colocalization; cited from earlier work.

Turning to `Nc1nc(=O)n([C@@H]2CS[C@H](COP(=O)(O)OP(=O)(O)OP(=O)(O)O)O2)cc1F` [FTC-tp, emtricitabine triphosphate], the “FTC-tp in brain tissue” value (all three animal models) was “not detected; also recorded: not quantifiable”.
Turning to `Cc1nnc(C(=O)NC(C)(C)c2nc(C(=O)NCc3ccc(F)cc3)c(O)c(=O)n2C)o1` [RAL, raltegravir], in series [1] (six of the remaining seven animals), the “IQ90 from total brain tissue concentrations” value was below 1. The “IQ90 from unbound brain tissue concentration” value in [1] (the one animal where unbound concentration could be measured) amounted to 0.07. Further, the “IQ90 in NHP brain tissue, one individual animal” value in series [1] is recorded as 1.1. Besides, the Kp at 1 day after the last of ten days of dosing (both, hu-HSC-Rag and BLT (mice), mouse (humanized) and rhesus macaque, in vivo) was in the range of 0.11 to 0.12.
`COC(=O)N[C@H](C(=O)N[C@@H](Cc1ccccc1)[C@@H](O)CN(Cc1ccc(-c2ccccn2)cc1)NC(=O)[C@@H](NC(=O)OC)C(C)(C)C)C(C)(C)C` [ATZ, atazanavir]: the BCS class entry in series [2] is recorded as “class I or class II”. In addition, in [3], the “fold higher IC90 against RT-SHIV than against clinical HIV-1 isolates” value is 1,000 fold. In series [4], the CSF concentrations was 5 to 21 ng/mL. The same molecule showed a fraction unbound at 18 h in series [5] of 0.76.
`Nc1nc(=O)n([C@@H]2CS[C@H](CO)O2)cc1F` [FTC, emtricitabine]: the “fold lower CSF concentration in NHPs than human concentrations” value in series [6] (compared with ref Calcagno (2014)) was “approximately 3 fold”. Moreover, in series [7], the “fold higher brain tissue penetration in BLT mice compared to hu-HSC-RAG mice” value turned out to be 5 fold. The “protein binding in plasma” value in series [8] (plasma) is recorded as below 10%.
Consider maraviroc [MVC], for which the “fold higher IC90 against RT-SHIV than against clinical HIV-1 isolates” value in series [3] is reported as 100 fold.
Consider `C[C@H](Cn1cnc2c(N)ncnc21)OCP(=O)(O)O` [TFV, tenofovir], for which the “fold higher brain tissue penetration in BLT mice compared to hu-HSC-RAG mice” value in series [7] was 3 fold. Further, the “protein binding in plasma” value in series [8] (no reference given) is below 10%. In addition, the “median brain tissue concentration, human post-mortem” value in series [9] is reported as 80 ng/g.
On to `CC(Cn1cnc2c(N)ncnc21)OCP(=O)(O)OP(=O)(O)OP(=O)(O)O` (stereo in doubt) [TFV-dp, tenofovir diphosphate], for which the “TFV-dp concentration range in all brain tissue samples” value in series [10] was 851 to 179,000 fmol/g of tissue. The “IQ90 in NHP brain tissue, one individual animal” value in [1] is reported as 1.1. In addition, the “fold higher median TFV-dp brain concentration in hu-HSC-RAG vs BLT mice” value in series [11] came to 10 fold.
For `O=C1Nc2ccc(Cl)cc2[C@@](C#CC2CC2)(C(F)(F)F)O1` [EFV, efavirenz], the BCS class result in series [2] is “class I or class II”. The IC50 target in series [12] is listed as 2 ng/g. Moreover, the “total brain tissue concentration, median [range]” value in series [6] (NHP, LC-MS/MS, four brain regions combined) came out at 775 ng/g. For the same molecule, the “blood plasma protein binding” value in [8] (ref Boffito et al. 2003) was 99.5%. Besides, the “median brain tissue concentration, human post-mortem” value in series [9] is 900 ng/g.
